# According to patent publication US9796753B2, “N-substituted indenoisoquinolines and syntheses thereof” (Purdue Research Foundation, priority 2005, dated 2017):
# Like-named read-outs stand apart in the source and are kept apart here.
# Experiments:
# Type in all cases: cell-based
# breast MDA-MB-435 = test: COMPARE screening (NCI human cancer cell line screen), cytotoxicity GI50
# colon HCT-116 = test: as above
# Protocol: (§1) Selected compounds were tested for antiproliferative activity in the National Cancer Institute's developmental therapeutics assay 60 cell line screen (NCI60). The cells were incubated with the tested compounds at 100, 10, 1, 0.1, and 0.01 μM concentrations for 48 h before treatment with sulforhodamine B dye. Optical densities were recorded, and their ratios relative to that of the control were plotted as percentage growth against the log 10 of the tested compound concentrations.
# prostate DU-145 = test: as above
# Protocol: as §1
# CNS SF-539 = test: as above
# Protocol: as §1
# renal SN12C = test: as above
# Protocol: as §1
# lung HOP-62 = test: as above
# Protocol: as §1
# melanoma UACC-62 = test: as above
# Protocol: as §1
# [1] = tested on: all human cancer cell lines successfully tested; test: NCI screen mean graph midpoint (MGM) for growth inhibition
# Protocol: COMPARE screening. The compounds described herein were examined for antiproliferative activity against the human cancer cell lines in the National Cancer Institute screen (COMPARE screening), in which the activity of each compound was evaluated with approximately 55 different cancer cell lines of diverse tumor origins. […] Therefore, the MGM value represents an overall assessment of toxicity of the compound across numerous cell lines.
# as §1
# The cytotoxicities of the compounds to cultured cancer cells were measured in the National Cancer Institute's 60 cell line assay (a.k.a. NCI-60).
# ovarian OVCAR-3 = test: COMPARE screening (NCI human cancer cell line screen), cytotoxicity GI50
# Protocol: as §1
# [2] = Table 1, average GI50 of all cell lines tested (approximately 55), test range 10^−8 to 10^−4 molar
# [3] = Homo sapiens, MDA-MB-435, read-out: cytotoxicity (GI50) breast MDA-MB-435
# [4] = Homo sapiens, DU-145, read-out: cytotoxicity (GI50) prostate DU-145
# [5] = Homo sapiens, OVCAR-3, read-out: cytotoxicity (GI50) ovarian OVCAR-3
# [6] = Homo sapiens, CNSSF-539, read-out: cytotoxicity (GI50) CNS SF-539
# [7] = Homo sapiens, SN12C, read-out: cytotoxicity (GI50) renal SN12C
# [8] = Homo sapiens, HOP-62, read-out: cytotoxicity (GI50) lung HOP-62
# [9] = Homo sapiens, UACC-62, read-out: cytotoxicity (GI50) melanoma UACC-62
# [10] = all human cancer cell lines successfully tested
# [11] = breast MDA-MB-435, concentration corresponding to 50% growth inhibition, read-out: cytotoxicity (GI50 in μM) breast MDA-MB-435
# [12] = ovarian OVCAR-3, concentration corresponding to 50% growth inhibition, read-out: cytotoxicity (GI50 in μM) ovarian OVCAR-3
# [13] = CNS SF-539, concentration corresponding to 50% growth inhibition, read-out: cytotoxicity (GI50 in μM) CNS SF-539
# [14] = Homo sapiens, HCT-116, read-out: cytotoxicity (GI50) colon HCT-116
Molecule,GI50 (breast MDA-MB-435),GI50 (colon HCT-116),GI50 (prostate DU-145),GI50 (CNS SF-539),GI50 (renal SN12C),GI50 (lung HOP-62),GI50 (melanoma UACC-62),GI50 (ovarian OVCAR-3),"MGM (mean GI50 across cell lines) [1, 2]",further results
O=C1c2ccccc2-c2c1c1ccc([N+](=O)[O-])cc1c(=O)n2CCCN1CCOCC1 [Compound 5bi],1.23 µM,0.038 µM,0.085 µM,0.095 µM,0.309 µM,0.021 µM,0.38 µM,–,–,"MGM (mean graph midpoint for growth inhibition) [1, 2]: 0.632 ± 0.029 µM"
O=C1c2ccccc2-c2c1c1ccccc1c(=O)n2CCCn1ccnc1 [Compound 5g],–,1.41 µM,1.41 µM,2.34 µM,1.66 µM,–,0.79 µM,1.66 µM,1.86 µM,–
Cl.O=C1c2ccccc2-c2c1c1ccccc1c(=O)n2CCCNCCO [Compound 5bo],0.49 µM,–,0.174 µM,0.55 µM,0.269 µM,0.195 µM,0.178 µM,0.55 µM,0.339 µM,–
"CC(C)(C)OC(=O)NCCCCCCCn1c2c(c3ccccc3c1=O)C(=O)c1ccccc1-2 [Compound 5af, 6-(7′-tert-BOC-Aminoheptyl)-5,6-dihydro-5,11-dioxo-11H-indeno[1,2-c]isoquinoline]",81.3 µM,17.4 µM,31.6 µM,20.9 µM,74.1 µM,–,20 µM,33.9 µM,30.9 µM,–
"Cl.O=C1c2ccccc2-c2c1c1ccccc1c(=O)n2CCc1ccccn1 [Compound 5ay, 5,6-Dihydro-5,11-dioxo-6-(2-pyridylethyl)-11H-indeno[1,2-c]isoquinoline Hydrochloride]",–,–,–,–,–,–,–,–,53.7 µM,GI50 (breast MDA-MB-435; [3]): 5.13 µM; GI50 (prostate DU-145; [4]): 74.1 µM; GI50 (ovarian OVCAR-3; [5]): > 100 µM; GI50 (CNS SF-539; [6]): 17.4 µM; GI50 (renal SN12C; [7]): 77.6 µM; GI50 (lung HOP-62; [8]): 21.4 µM; GI50 (melanoma UACC-62; [9]): 27.5 µM
"Bis-1,2-{(5,6-dihydro-5,11-diketo-11H-indeno[1,2-c]isoquinoline)-6-ethylamino-ethylamino}ethane Tetra(trifluoroacetate) [Compound 14j]",0.126 µM,0.2 µM,0.085 µM,0.012 µM,–,0.977 µM,–,0.032 µM,–,"MGM (mean graph midpoint for growth inhibition) [1, 10]: 0.262 ± 0.100 µM"
"CN(CCCn1c2c(c3ccccc3c1=O)C(=O)c1ccccc1-2)CCCn1c2c(c3ccccc3c1=O)C(=O)c1ccccc1-2 [Compound 12d, Bis{(5,6-dihydro-5,11-diketo-11H-indeno[1,2-c]isoquinoline)-6-propyl}methylamine]",–,–,–,–,–,–,–,–,–,"GI50 (breast MDA-MB-435; [11]): 1.55 µM; GI50 (ovarian OVCAR-3; [12]): 1.2 µM; GI50 (CNS SF-539; [13]): 1.12 µM; GI50 (renal SN12C; renal SN12C, concentration corresponding to 50% growth inhibition, read-out: cytotoxicity (GI50 in μM) renal SN12C): 0.589 µM; GI50 (melanoma UACC-62; melanoma UACC-62, concentration corresponding to 50% growth inhibition, read-out: cytotoxicity (GI50 in μM) melanoma UACC-62): 2 µM; MGM (mean graph midpoint for growth inhibition) [1, 10]: 0.934 ± 0.476 µM"
"CC(C)(C)OC(=O)NCCCCCCCCCn1c2c(c3ccccc3c1=O)C(=O)c1ccccc1-2 [Compound 5ah, 6-(9′-tert-BOC-Aminononyl)-5,6-dihydro-5,11-dioxo-11H-indeno[1,2-c]isoquinoline]",> 100 µM,–,> 100 µM,17.8 µM,77.6 µM,24.5 µM,17.4 µM,28.8 µM,50.1 µM,–
COc1ccc2c(c1)C(=O)c1c-2n(CCCNCCO)c(=O)c2cc([N+](=O)[O-])ccc12.Cl [Compound 5bm],< 0.01 µM,–,< 0.03 µM,< 0.01 µM,0.012 µM,< 0.01 µM,< 0.01 µM,< 0.01 µM,0.016 µM,–
COc1ccc2c(c1)C(=O)c1c-2n(CCCN)c(=O)c2ccccc12.Cl [Compound 5bg],0.059 µM,< 0.01 µM,0.014 µM,0.038 µM,< 0.01 µM,< 0.01 µM,–,0.028 µM,–,"MGM (mean graph midpoint for growth inhibition) [1, 2]: 0.048 ± 0.024 µM"
"COc1cc2c3c(n(CCCNCCCNCCCn4c5c(c6ccccc6c4=O)C(=O)c4ccccc4-5)c(=O)c2cc1OC)-c1cc2c(cc1C3=O)OCO2.O=C(O)C(F)(F)F.O=C(O)C(F)(F)F [Compound 17a, 1,3-{6-(3-Amino-1-propyl)-5,6-dihydro-2,3-dimethoxy-8,9-methylenedioxy-5,1-dioxo-11H-indeno[1,2-c]isoquinoline}-{5′,6′-Dihydro-6′-(3′-amino-1′-propyl)-5′,11′-dioxo-11′H-indeno[1,2-c]isoquinoline}propane Bis(trifluoroacetate)]",–,–,–,–,–,–,–,–,–,"GI50 (breast MDA-MB-435; [11]): 0.155 µM; GI50 (colon HCT-116; colon HCT-116, concentration corresponding to 50% growth inhibition, read-out: cytotoxicity (GI50 in μM) colon HCT-116): 0.022 µM; GI50 (prostate DU-145; prostate DU-145, concentration corresponding to 50% growth inhibition, read-out: cytotoxicity (GI50 in μM) prostate DU-145): 0.01 µM; GI50 (ovarian OVCAR-3; [12]): < 0.01 µM; GI50 (CNS SF-539; [13]): < 0.01 µM; GI50 (lung HOP-62; lung HOP-62, concentration corresponding to 50% growth inhibition, read-out: cytotoxicity (GI50 in μM) lung HOP-62): 0.191 µM; MGM (mean graph midpoint for growth inhibition) [1, 10]: 0.046 ± 0.010 µM"
COc1cc2c3c(n(CCCN(C)C)c(=O)c2cc1OC)-c1ccccc1C3=O [Compound 5a],7.08 µM,2.45 µM,4.47 µM,6.17 µM,11 µM,–,6.61 µM,5.89 µM,6.17 µM,–
"COc1cc2c3c(n(CCCn4ccnc4)c(=O)c2cc1OC)-c1cc2c(cc1C3=O)OCO2.Cl [Compound 5l, Hydrochloride]",0.02 µM,< 0.01 µM,< 0.01 µM,0.037 µM,< 0.01 µM,< 0.01 µM,< 0.01 µM,–,–,"GI50 (ovarian OVCAR-3; Table 1, concentration corresponding to 50% growth inhibition, read-out: cytotoxicity (GI50) ovarian OVCAR-3): 0.085 µM"
COc1ccc2c(c1)C(=O)c1c-2n(CCCI)c(=O)c2cc([N+](=O)[O-])ccc12 [Compound 5bd],1.48 µM,0.046 µM,0.034 µM,0.058 µM,0.309 µM,–,0.148 µM,3.02 µM,–,"MGM (mean graph midpoint for growth inhibition) [1, 2]: 0.328 ± 0.046 µM"
"COc1cc2c3c(oc(=O)c2cc1OC)-c1ccccc1C3=O [Compound 4a, 2,3-dimethoxybenz[d]indeno[1,2-b]pyran-5,11-dione]",–,–,–,–,–,–,–,–,–,GI50 (breast MDA-MB-435; [3]): ≥ 100 µM; GI50 (colon HCT-116; [14]): ≥ 100 µM; GI50 (prostate DU-145; [4]): ≥ 100 µM; GI50 (ovarian OVCAR-3; [5]): ≥ 100 µM; GI50 (CNS SF-539; [6]): ≥ 100 µM; GI50 (renal SN12C; [7]): ≥ 100 µM; GI50 (melanoma UACC-62; [9]): ≥ 100 µM; MGM (mean GI50 across cell lines) ([1]; Homo sapiens): ≥ 100 µM
[N-]=[N+]=NCCCn1c2c(c3ccccc3c1=O)C(=O)c1ccccc1-2 [Compound 5bh],7.76 µM,4.9 µM,29.5 µM,–,25.1 µM,7.59 µM,19.5 µM,7.94 µM,12.3 µM,–
"O=C1c2ccccc2-c2c1c1ccc([N+](=O)[O-])cc1c(=O)n2CCCBr [Compound 5bb, 6-(3-Bromopropyl)-5,6-dihydro-5,11-dioxo-3-nitro-11H-indeno[1,2-c]isoquinoline]",–,–,–,–,–,–,–,–,40.0 µM,GI50 (breast MDA-MB-435; [3]): > 100 µM; GI50 (colon HCT-116; [14]): 3.47 µM; GI50 (prostate DU-145; [4]): > 100 µM; GI50 (ovarian OVCAR-3; [5]): > 100 µM; GI50 (CNS SF-539; [6]): > 100 µM; GI50 (renal SN12C; [7]): > 100 µM; GI50 (melanoma UACC-62; [9]): > 100 µM
"O=C1c2ccccc2-c2c1c1ccccc1c(=O)n2Cc1ccccn1 [Compound 5aw, 5,6-Dihydro-5,11-dioxo-6-(2-pyridylmethyl)-11H-indeno[1,2-c]isoquinoline]",–,–,–,–,–,–,–,–,15.1 µM,GI50 (breast MDA-MB-435; [3]): 3.09 µM; GI50 (prostate DU-145; [4]): 13.5 µM; GI50 (ovarian OVCAR-3; [5]): 13.8 µM; GI50 (CNS SF-539; [6]): 12.3 µM; GI50 (renal SN12C; [7]): 28.2 µM; GI50 (lung HOP-62; [8]): 11.2 µM; GI50 (melanoma UACC-62; [9]): 10.7 µM
"CC(C)(C)OC(=O)NCCCCCCCCn1c2c(c3ccccc3c1=O)C(=O)c1ccccc1-2 [Compound 5ag, 6-(8′-tert-BOC-Aminooctyl)-5,6-dihydro-5,11-dioxo-11H-indeno[1,2-c]isoquinoline]",> 50.1 µM,25.7 µM,> 50.1 µM,8.71 µM,> 50.1 µM,10.7 µM,15.5 µM,–,19.9 µM,–
